Entries after “also recorded” stand apart in the source; their conditions may differ. Read-outs that look alike come from different tables or passages of the source.

Assay [1] concerns SK-MEL-28. Particulars: BRAF-mut (V600E); cited from earlier work.
Assay [2] relates to RPMI-7951. Particulars: BRAF-mut (V600E), COT Amplification; cited from earlier work.
Assay [3] deals with SK-MEL-31. The settings on record: BRAF-wt, RAS-wt; cited from earlier work.
In a further assay the test system is melanoma. Particulars: phase I and II clinical trials; cited from earlier work.
Assay [4] concerns RPMI-7951. The assay is described as follows: PDGFRβ activation in the absence or presence of U0126 or PLX-4702 (FIG. 36). In kind it is cell-based. The source says: (§1) Protein levels measured include pAKT, pErk, pMEK.
For the next assay, the system named is RPMI-7951 cells. Briefly: EGF stimulation and PLX or MEK inhibition (FIG. 35). Format: cell-based. The source says: Protein levels measured include pAKT, pErk, pMEK and pEGFR.
The test system of assay [5] is RPMI-7951. Briefly: PDGFβ stimulation and MEK inhibition of PDGFβ stimulation (FIGS. 23 and 24). Format: cell-based. The settings on record: MEK inhibition of PDGFβ stimulation.
The subject of assay [6] is Breast Cancer Cell lines (BT-474, MDA-MD-231, SKBR3, HCC-1937, BT-20, T47D, MCF-7, BT-549). Particulars: EGF 200 ng/ml with U0126 1 μM. The procedure:
Breast Cancer Cell lines (BT-474, MDA-MD-231, SKBR3, HCC-1937, BT-20, T47D, MCF-7, BT-549) are propagated and removed from the plate by gentle scraping to simulate a FNA biopsy sample. Following removal, the cells were placed on the SnapPath™ live-tumor-cell processing platform (BioMarker Strategies, LLC) to evoke ex vivo biomarkers. SnapPath™ disperses the sample, enriches for tumor cells, aliquots into test wells, and applies ex vivo stimulation by EGF (200 ng/ml) in the presence or absence of the MEK inhibitor, U0126 (1 μM). Cell lysates are then analyzed using the BioPlex platform for the following phosphoproteins: p-Erk 1/2, p-AKT, p-EGFR, p-Stat3 (BioRad). Functional profiles are generated for each cell line based on the levels of phosphoproteins.

A further assay has as its system SK-MEL-21. Particulars: MEK inhibition of PDGFβ stimulation.
In assay [7] the test system is SK-MEL-28. The settings on record: MEK inhibition of PDGFβ stimulation. The source says: (§2) Protein levels measured include pAKT, pErk, pGSK3β, pP70S6k, pSTAT3, and pEGFR.
The next assay relates to SK-MEL-2. Particulars: MEK inhibition of PDGFβ stimulation.
From the text: as §2

Another assay concerns SK-MEL-28 cells. Particulars: MEK inhibition, absence of EGF stimulation.
From the text: as §2

Another assay has as its system SK-MEL-31 cells. Particulars: MEK inhibition, absence of EGF stimulation.
From the text: as §2

Assay [8] relates to SK-MEL-28. Briefly: EGF stimulation in the presence of PLX-4702 or U0126 (FIGS. 33 and 34). In kind it is cell-based.
From the text: as §1

The test system of a further assay is MCF-7 cells. The assay is described as follows: EGF stimulation, phosphoprotein modulation score (BioPlex bead-immunoassay). Format: cell-based. Particulars: 200 ng/ml EGF 5 minutes. The procedure: (§3) Breast cancer cell lines (MCF-7, HCC-1937, MDA-MB-231, BT474, and SKBR3) are exposed to either vehicle (control) or stimulated with 200 ng/ml epidermal growth factor (EGF) for 5 minutes then lysed and proteins extracted. Mean Fluorescence Intensity (MFI) levels of six phosphoproteins (pEGFR, pErk, pAKT, pP70S6K, pGSK3β, and pSTAT3) are determined in sextuplet using a multiplexed bead-immunoassay (BioPlex, BioRad) and a modulation score (MS), defined as the log 2 (MFI stimulated/MFI control), calculated for each. Scores are ranked by percentile relative to the median (0.66) and inter-quartile range (IQR) (1.54). Moderate responders are classified as those with MS between the 75th percentile (2.20) and the 75th percentile plus the IQR (3.74). High responders are those MS>3.74. Low responders are those MS falling between the IQR and 75th percentile (1.54-2.20) whereas non responders are classified as MS<1.54.

The next assay deals with SKBR3. The assay is described as above. Format: cell-based. The settings on record: 200 ng/ml EGF 5 minutes. The procedure: as §3
The next assay concerns BT474. The assay is described as above. In kind it is cell-based. Particulars: 200 ng/ml EGF 5 minutes. The procedure:
as §3

The subject of another assay is HCC-1937. The assay is described as above. Format: cell-based. The settings on record: 200 ng/ml EGF 5 minutes. The protocol:
as §3

For assay [9], the system named is Breast cancer cell lines (MCF-7, HCC-1937, MDA-MB-231, BT474, and SKBR3). Briefly: EGF stimulation, phosphoprotein modulation score, cell line panel. Format: cell-based. The settings on record: 200 ng/ml EGF 5 minutes. The protocol: as §3
The subject of assay [10] is RPMI-7951. Briefly: Melanoma functional signaling profile upon EGF stimulation (FIG. 15). Format: cell-based. The protocol:
(§4) Protein levels are measured for pAKT, pERK, pGSK3, p70S6K, pSTAT, pEGFR in RPMI-7951, SK-MEL 2, SK-MEL 28, and SK-MEL 31 cells. Fold changes are calculated for protein level before and after EGF stimulation.

Assay [11] concerns SK-MEL-31. Described as above. Format: cell-based. The protocol: as §4

Consider `CCCS(=O)(=O)Nc1ccc(F)c(C(=O)c2c[nH]c3ncc(-c4ccc(Cl)cc4)cc23)c1F` [PLX-4032], for which the “PLX-4032 Phenotype” value is reported as “Sensitive” with SK-MEL-28 [1], “resistance; also recorded: Resistant” with RPMI-7951 [2] and “resistance; also recorded: Resistant” in the assay on SK-MEL-31 [3]. In the assay with melanoma, the response rate result was “remarkable response rate”.
With `N#CC(=C(/N)Sc1ccccc1N)/C(C#N)=C(\N)Sc1ccccc1N` [U0126], in the assay on RPMI-7951 [4] (MEK inhibition), the pMEK down-regulation entry is “less effective”. Also, the pErk entry in the assay on RPMI-7951 cells (EGF stimulation, MEK inhibition) is “decreased”; with SK-MEL-2 it was “not impacted”; in the assay on SK-MEL-28 cells, “inhibited”; with SK-MEL-31 cells it was “inhibited”. The “reduction of pErk” value in the assay on RPMI-7951 [5], in the assay with SK-MEL-21 and with SK-MEL-28 [7] was “approximately 50%” each time. The figures for the pAKT phosphorylation level result in assay [6] (another functional group) and in assay [6] (one functional group) were “unanticipated up-regulation of p-AKT” and “low levels of p-AKT inhibition”, respectively. The pEGFR phosphorylation level result in [6] (one functional group) is “low p-EGFR inhibition”; in [6] (other functional group) it was “unanticipated up-regulation of p-EGFR”. The pEGFR result with SK-MEL-28 cells was “activated”. Also, the pAkt entry with SK-MEL-31 cells was “upregulated”. Moreover, the pMEK result in the assay on SK-MEL-28 [8] (MEK inhibitor and EGF) is listed as “increased”.
epidermal growth factor [EGF]: the “STAT-3 phosphorylation MS” value in the assay on MCF-7 cells came out at 2.34. The entries for the “MS for pErk” value in the assay with MCF-7 cells (MS = log 2 (MFI stimulated/MFI control)) and with HCC-1937 were 3.92 and 2.89, respectively. For the same molecule, the “pAKT MS” value in the assay with SKBR3 was 1.78. Moreover, in the assay with BT474, the “EGFR-phosphorylation MS” value is 2.57. Also, the pEGFR entry in the assay with RPMI-7951 cells (all EGF modulation) was “dramatically increased”. Also, the EGFR-phosphorylation response class result in assay [9] (all cells except BT474) is “high”. In assay [9] (all five cell lines), the “pGSK3β MS” value is less than 1.0. For the same molecule, the “pP70S6K MS” value in assay [9] (all five cell lines) is on record as less than 1.0. Further, the “MS of all other markers across the five cell lines” value in assay [9] (markers not named individually) is given as less than 1.54. Moreover, the pErk response class entry in assay [9] (other lines tested (not MCF-7, HCC-1937)) is recorded as “none”. In addition, the “induction of pEGFR” value in the assay with RPMI-7951 [10] and in the assay with SK-MEL-31 [11] was “highest induction” each time.
Turning to `CCCS(=O)(=O)Nc1ccc(F)c(C(=O)c2c[nH]c3ncc(Cl)cc23)c1F` [PLX-4702], the pMEK result in the assay on RPMI-7951 [4] (presence of PLX-4702) is listed as “down-regulated”. In the assay on SK-MEL-28 [8] (PLX inhibition plus EGF stimulation), the pERk expression entry is recorded as “reduced”.

The record behind these values is US9766249B2, “Compositions and methods for prediction of drug sensitivity, resistance, and disease progression” (BioMarker Strategies, LLC, priority 2010, dated 2017).
